Data taken from BindingDB's records for doi:10.1021/acs.jmedchem.9b01562 (Lupin, 2019).

Columns and labels:
[1] = Inhibition of NS5A in HCV genotype 2a infected in human Huh7.5/J6/JFH1/EMCVIRES/hRlucNeo cells assessed as inhibition of replicon levels incubated for 72 hrs by luciferase reporter gene assay
[2] = Inhibition of NS5A in HCV genotype 1b infected in human HuH7.5/Con1/SG-Neo(I)-hRluc2aUb cells assessed as inhibition of replicon levels incubated for 72 hrs by luciferase reporter gene assay
[3] = Inhibition of NS5A in HCV genotype 6a infected in human HuH7.5/Con1/SG-Neo(I)-hRluc2aUb cells assessed as inhibition of replicon levels incubated for 72 hrs by luciferase reporter gene assay
[4] = Inhibition of NS5A in HCV genotype 3a infected in human HuH7.5/Con1/SG-Neo(I)-hRluc2aUb cells assessed as inhibition of replicon levels incubated for 72 hrs by luciferase reporter gene assay
[5] = Inhibition of NS5A in HCV genotype 1a infected in human HuH7.5/Con1/SG-Neo(I)-hRluc2aUb cells assessed as inhibition of replicon levels incubated for 72 hrs by luciferase reporter gene assay
[6] = Inhibition of NS5A in HCV genotype 4a infected in human HuH7.5/Con1/SG-Neo(I)-hRluc2aUb cells assessed as inhibition of replicon levels incubated for 72 hrs by luciferase reporter gene assay

SMILES	IC50 [1]	IC50 [2]	IC50 [3]	IC50 [4]	IC50 [5]	IC50 [6]
COC(=O)N[C@H](C(=O)N1CCC[C@H]1c1ncc(-c2ccc(N3CC4CC3CN4c3ccc(-c4cnc([C@@H]5CCCN5C(=O)[C@@H](NC(=O)OC)C(C)C)[nH]4)cc3)cc2)[nH]1)C(C)C	4 nM	3.7 nM				
COC(=O)N[C@H](C(=O)N1CCC[C@H]1c1nc(C2CC2)c(-c2ccc3c(c2)OCC(C)(C)COc2cc(-c4[nH]c([C@@H]5CCCN5C(=O)[C@@H](NC(=O)OC)C(C)C)nc4C4CC4)ccc2-3)[nH]1)C(C)C	6.8 nM	0.115 nM				
COC(=O)N[C@H](C(=O)N1CCC[C@H]1c1ncc(-c2ccc3c(c2)OCC(C)(C)COc2cc(-c4cnc([C@@H]5CCCN5C(=O)[C@@H](NC(=O)OC)C(C)C)[nH]4)ccc2-3)[nH]1)C(C)C	0.176 nM	0.069 nM				
COC(=O)N[C@H](C(=O)N1CCC[C@H]1c1ncc(-c2ccc(N3CCN(c4ccc(-c5cnc([C@@H]6CCCN6C(=O)[C@@H](NC(=O)OC)C(C)C)[nH]5)cc4)CC3)cc2)[nH]1)C(C)C	4.6 nM	0.262 nM				
COC(=O)N[C@H](C(=O)N1CCC[C@H]1c1ncc(-c2ccc(C34CCC(c5ccc(-c6cnc([C@@H]7CCCN7C(=O)[C@@H](NC(=O)OC)C(C)C)[nH]6)cc5)(CC3)CC4)cc2)[nH]1)C(C)C	34 nM	0.312 nM				
COC(=O)N[C@H](C(=O)N1CCC[C@H]1c1ncc(-c2ccc3c(c2)OCCCOc2cc(-c4cnc([C@@H]5CCCN5C(=O)[C@@H](NC(=O)OC)C(C)C)[nH]4)ccc2-3)[nH]1)C(C)C	0.314 nM	0.288 nM				
COC(=O)N[C@H](C(=O)N1CCC[C@H]1c1ncc(-c2ccc3c(c2)OCCCCOc2cc(-c4cnc([C@@H]5CCCN5C(=O)[C@@H](NC(=O)OC)C(C)C)[nH]4)ccc2-3)[nH]1)C(C)C	1.3 nM	0.194 nM				
COC(=O)N[C@H](C(=O)N1CCC[C@H]1c1ncc(-c2ccc3c(c2)OCC2(CC2)COc2cc(-c4cnc([C@@H]5CCCN5C(=O)[C@@H](NC(=O)OC)C(C)C)[nH]4)ccc2-3)[nH]1)C(C)C	1.8 nM	0.135 nM				
COC(=O)N[C@H](C(=O)N1CCC[C@H]1c1ncc(-c2ccc3c(c2)OCCCOc2cc(-c4[nH]c([C@@H]5CCCN5C(=O)[C@@H](NC(=O)OC)C(C)C)nc4Cl)ccc2-3)[nH]1)C(C)C	0.053 nM	0.051 nM				
COC(=O)N[C@H](C(=O)N1CCC[C@H]1c1ncc(-c2ccc3c(c2)OCCc2cc(-c4cnc([C@@H]5CCCN5C(=O)[C@@H](NC(=O)OC)C(C)C)[nH]4)sc2-3)[nH]1)C(C)C	10.6 nM	0.022 nM				
COC(=O)N[C@H](C(=O)N1CCC[C@H]1c1ncc(-c2ccc3c(c2)CC2(C3)Cc3ccc(-c4cnc([C@@H]5CCCN5C(=O)[C@@H](NC(=O)OC)C(C)C)[nH]4)cc3C2)[nH]1)C(C)C	27 nM	0.08 nM				
COC(=O)N[C@H](C(=O)N1CCC[C@H]1c1ncc(-c2ccc3c(c2)CCCc2cc(-c4cnc([C@@H]5CCCN5C(=O)[C@@H](NC(=O)OC)C(C)C)[nH]4)sc2-3)[nH]1)C(C)C	0.801 nM	0.021 nM				
COC(=O)N[C@H](C(=O)N1[C@H]2CC[C@H](C2)[C@H]1c1ncc(-c2ccc3c(ccc4cc(-c5cnc([C@@H]6[C@@H]7CC[C@@H](C7)N6C(=O)[C@@H](NC(=O)OC)C(C)C)[nH]5)sc43)c2)[nH]1)C(C)C	0.337 nM	0.021 nM				
COC(=O)N[C@H](C(=O)N1CCC[C@H]1c1ncc(-c2ccc(-c3ccc(-c4ccc(-c5cnc([C@@H]6CCCN6C(=O)[C@@H](NC(=O)OC)C(C)C)[nH]5)cc4)cc3)cc2)[nH]1)C(C)C	26 nM	0.136 nM				
CCc1nc([C@@H]2CCCN2C(=O)[C@@H](NC(=O)OC)C(C)C)[nH]c1-c1ccc2c(c1)OCC(C)(C)COc1cc(-c3[nH]c([C@@H]4CCCN4C(=O)[C@@H](NC(=O)OC)C(C)C)nc3CC)ccc1-2	80 nM	0.219 nM				
COC(=O)N[C@H](C(=O)N1CCC[C@H]1c1ncc(-c2ccc3c(ccc4sc(-c5cnc([C@@H]6CCCN6C(=O)[C@@H](NC(=O)OC)C(C)C)[nH]5)nc43)c2)[nH]1)C(C)C		0.073 nM				
COC(=O)N[C@H](C(=O)N1CCC[C@H]1c1nc(-c2ccc(-c3ccc(-c4c[nH]c([C@@H]5CCCN5C(=O)[C@@H](NC(=O)OC)C(C)C)n4)cc3)cc2)c[nH]1)C(C)C [BMS-790052]	0.009 nM	0.023 nM				

Next, values leading:

IC50 [1]	IC50 [2]	IC50 [3]	IC50 [4]	IC50 [5]	IC50 [6]	SMILES
0.011 nM	0.013 nM					COC(=O)N[C@H](C(=O)N1CCC[C@H]1c1ncc(-c2ccc3c(ccc4cc(-c5cnc([C@@H]6[C@@H]7CC[C@@H](C7)N6C(=O)[C@@H](NC(=O)OC)C(C)C)[nH]5)sc43)c2)[nH]1)C(C)C
0.03 nM	0.02 nM	0.055 nM	0.075 nM	0.031 nM	0.009 nM	COC(=O)N[C@H](C(=O)N1CCC[C@H]1c1ncc(-c2ccc3c(c2)OCc2cc(-c4cnc([C@@H]5CCCN5C(=O)[C@@H](NC(=O)OC)C(C)C)[nH]4)sc2-3)[nH]1)C(C)C
0.031 nM	0.019 nM					COC(=O)N[C@H](C(=O)N1CCC[C@H]1c1nc(Cl)c(-c2ccc3c(c2)OCCCOc2cc(-c4[nH]c([C@@H]5CCCN5C(=O)[C@@H](NC(=O)OC)C(C)C)nc4Cl)ccc2-3)[nH]1)C(C)C
0.021 nM	0.021 nM					COC(=O)N[C@H](C(=O)N1CCC[C@H]1c1ncc(-c2ccc3c(c2)CCc2cc(-c4cnc([C@@H]5CCCN5C(=O)[C@@H](NC(=O)OC)C(C)C)[nH]4)sc2-3)[nH]1)C(C)C
0.005 nM	0.012 nM	0.028 nM	0.047 nM	0.027 nM	0.003 nM	COC(=O)N[C@H](C(=O)N1CCC[C@H]1c1ncc(-c2ccc3c(ccc4cc(-c5cnc([C@@H]6CCCN6C(=O)[C@@H](NC(=O)OC)C(C)C)[nH]5)sc43)c2)[nH]1)C(C)C
0.052 nM	0.02 nM					COC(=O)N[C@H](C(=O)N1CCC[C@H]1c1nc(Cl)c(-c2ccc3c(c2)CCCc2cc(-c4[nH]c([C@@H]5CCCN5C(=O)[C@@H](NC(=O)OC)C(C)C)nc4Cl)sc2-3)[nH]1)C(C)C
1.3 nM	0.008 nM					COC(=O)N[C@H](C(=O)N1CCC[C@H]1c1nc(Cl)c(-c2ccc3c(c2)OCCc2cc(-c4[nH]c([C@@H]5CCCN5C(=O)[C@@H](NC(=O)OC)C(C)C)nc4Cl)sc2-3)[nH]1)C(C)C
0.671 nM	0.021 nM					COC(=O)N[C@H](C(=O)N1CCC[C@H]1c1ncc(-c2ccc3c(c2)OCC(C)(C)COc2cc(-c4[nH]c([C@@H]5CCCN5C(=O)[C@@H](NC(=O)OC)C(C)C)nc4Cl)ccc2-3)[nH]1)C(C)C
0.322 nM	0.004 nM					COC(=O)N[C@H](C(=O)N1CCC[C@H]1c1nc(Cl)c(-c2ccc3c(c2)OCC(C)(C)COc2cc(-c4[nH]c([C@@H]5CCCN5C(=O)[C@@H](NC(=O)OC)C(C)C)nc4Cl)ccc2-3)[nH]1)C(C)C
0.009 nM	0.015 nM					COC(=O)N[C@H](C(=O)N1CCC[C@H]1c1ncc(-c2ccc3c(c2)CCc2cc(-c4cnc([C@@H]5CCCN5C(=O)[C@@H](NC(=O)OC)C(C)C)[nH]4)ccc2-3)[nH]1)C(C)C
